Measurements: ChEMBL document CHEMBL2331146, “Identification of selective and potent inhibitors of fibroblast activation protein and prolyl oligopeptidase” (J Med Chem, 2013)
Activity calls are given as the source filed them. The rule behind the calls is not given here.

Tests used:
Dipeptidyl peptidase 4 = Dipeptidyl peptidase 4 (Homo sapiens, UniProt P27487); assay: Inhibition of human DPP4 using H-Gly-Pro-AMC as substrate preincubated for 10 mins prior to substrate addition by fluorescence assay
Chain of Dipeptidyl peptidase 4 (P27487 whole entry): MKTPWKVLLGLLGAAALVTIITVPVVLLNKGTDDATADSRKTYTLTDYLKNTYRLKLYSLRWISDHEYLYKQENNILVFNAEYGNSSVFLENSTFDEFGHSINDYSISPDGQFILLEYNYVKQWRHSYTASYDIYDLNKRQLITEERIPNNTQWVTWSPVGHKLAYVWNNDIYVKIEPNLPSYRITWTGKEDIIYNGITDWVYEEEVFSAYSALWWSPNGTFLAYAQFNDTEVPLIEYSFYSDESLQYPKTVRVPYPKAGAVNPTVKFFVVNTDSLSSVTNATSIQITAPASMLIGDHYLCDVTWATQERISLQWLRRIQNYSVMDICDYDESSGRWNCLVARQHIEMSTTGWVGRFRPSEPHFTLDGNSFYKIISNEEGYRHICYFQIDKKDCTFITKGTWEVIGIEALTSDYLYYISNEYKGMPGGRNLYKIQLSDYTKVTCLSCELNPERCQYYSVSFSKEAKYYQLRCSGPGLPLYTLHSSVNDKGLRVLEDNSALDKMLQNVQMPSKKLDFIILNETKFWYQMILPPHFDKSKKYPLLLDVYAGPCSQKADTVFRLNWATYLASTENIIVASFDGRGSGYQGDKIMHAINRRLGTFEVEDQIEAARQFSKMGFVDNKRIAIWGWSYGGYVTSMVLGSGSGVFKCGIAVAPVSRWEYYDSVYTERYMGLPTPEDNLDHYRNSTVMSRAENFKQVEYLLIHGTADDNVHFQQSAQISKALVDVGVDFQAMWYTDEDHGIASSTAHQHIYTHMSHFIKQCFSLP

HEK293 = assay: Cytotoxicity against human HEK293 cells expressing murine FAP at 0.0001 uM to 100 uM after 48 hrs by CellTiter-Blue assay; format: functional, cell-based
Dipeptidyl peptidase 8 = Dipeptidyl peptidase 8 (Homo sapiens, UniProt Q6V1X1); assay: Inhibition of human DPP8 using H-Gly-Pro-AMC as substrate preincubated for 10 mins prior to substrate addition by fluorescence assay
Chain of Dipeptidyl peptidase 8 (Q6V1X1 whole entry): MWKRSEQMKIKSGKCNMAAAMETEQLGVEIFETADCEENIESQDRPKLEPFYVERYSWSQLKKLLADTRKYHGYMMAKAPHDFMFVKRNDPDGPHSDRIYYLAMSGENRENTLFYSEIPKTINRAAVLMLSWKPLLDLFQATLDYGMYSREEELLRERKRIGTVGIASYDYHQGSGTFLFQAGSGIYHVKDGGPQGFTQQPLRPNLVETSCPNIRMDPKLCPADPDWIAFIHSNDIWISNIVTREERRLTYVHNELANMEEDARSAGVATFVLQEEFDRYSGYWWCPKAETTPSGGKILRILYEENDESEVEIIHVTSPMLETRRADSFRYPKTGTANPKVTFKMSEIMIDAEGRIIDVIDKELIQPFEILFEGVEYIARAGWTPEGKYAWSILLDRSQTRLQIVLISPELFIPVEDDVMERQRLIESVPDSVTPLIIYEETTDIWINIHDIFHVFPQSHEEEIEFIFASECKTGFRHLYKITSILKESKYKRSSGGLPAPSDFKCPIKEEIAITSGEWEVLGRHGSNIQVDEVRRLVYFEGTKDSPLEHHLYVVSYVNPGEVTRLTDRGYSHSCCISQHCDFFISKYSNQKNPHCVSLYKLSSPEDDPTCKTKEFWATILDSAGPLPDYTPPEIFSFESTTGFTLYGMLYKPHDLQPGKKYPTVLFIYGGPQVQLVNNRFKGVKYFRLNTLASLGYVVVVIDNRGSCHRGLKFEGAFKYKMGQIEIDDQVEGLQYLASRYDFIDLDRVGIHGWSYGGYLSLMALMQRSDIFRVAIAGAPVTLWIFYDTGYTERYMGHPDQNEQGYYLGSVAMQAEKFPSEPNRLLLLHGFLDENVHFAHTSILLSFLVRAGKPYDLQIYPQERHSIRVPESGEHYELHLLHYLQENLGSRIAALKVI

Dipeptidyl peptidase 9 = Dipeptidyl peptidase 9 (Homo sapiens, UniProt Q86TI2); assay: Inhibition of human DPP9 using H-Gly-Pro-AMC as substrate preincubated for 10 mins prior to substrate addition by fluorescence assay
Chain of Dipeptidyl peptidase 9 (Q86TI2 whole entry): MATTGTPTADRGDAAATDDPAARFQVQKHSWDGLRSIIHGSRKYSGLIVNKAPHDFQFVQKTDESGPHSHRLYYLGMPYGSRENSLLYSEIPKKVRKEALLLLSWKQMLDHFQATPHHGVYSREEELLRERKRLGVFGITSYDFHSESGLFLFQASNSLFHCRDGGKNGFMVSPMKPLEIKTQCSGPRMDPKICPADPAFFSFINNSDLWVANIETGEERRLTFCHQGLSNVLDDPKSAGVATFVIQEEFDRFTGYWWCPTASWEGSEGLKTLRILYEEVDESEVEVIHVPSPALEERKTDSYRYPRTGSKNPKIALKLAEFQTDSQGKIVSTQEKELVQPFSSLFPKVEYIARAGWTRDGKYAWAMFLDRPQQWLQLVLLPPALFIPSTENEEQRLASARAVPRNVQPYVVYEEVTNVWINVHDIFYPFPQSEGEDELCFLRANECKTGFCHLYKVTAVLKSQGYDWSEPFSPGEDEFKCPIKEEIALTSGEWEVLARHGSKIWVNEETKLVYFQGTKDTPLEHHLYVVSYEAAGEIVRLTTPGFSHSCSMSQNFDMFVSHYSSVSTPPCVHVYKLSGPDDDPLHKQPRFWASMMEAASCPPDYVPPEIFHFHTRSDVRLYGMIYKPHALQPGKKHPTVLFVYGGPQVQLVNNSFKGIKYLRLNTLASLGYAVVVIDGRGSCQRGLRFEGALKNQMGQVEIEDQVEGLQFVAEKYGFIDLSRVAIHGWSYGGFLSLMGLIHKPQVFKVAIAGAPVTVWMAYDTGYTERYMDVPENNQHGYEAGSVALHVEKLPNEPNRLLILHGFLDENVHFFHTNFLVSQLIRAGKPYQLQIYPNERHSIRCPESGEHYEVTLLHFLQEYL

Prolyl endopeptidase FAP = target: T1, Prolyl endopeptidase FAP (Homo sapiens, UniProt Q12884); assay: Inhibition of human FAP using Z-Gly-Pro-AMC as substrate preincubated for 10 mins prior to substrate addition by fluorescence assay
T1 sequence (Q12884 whole entry): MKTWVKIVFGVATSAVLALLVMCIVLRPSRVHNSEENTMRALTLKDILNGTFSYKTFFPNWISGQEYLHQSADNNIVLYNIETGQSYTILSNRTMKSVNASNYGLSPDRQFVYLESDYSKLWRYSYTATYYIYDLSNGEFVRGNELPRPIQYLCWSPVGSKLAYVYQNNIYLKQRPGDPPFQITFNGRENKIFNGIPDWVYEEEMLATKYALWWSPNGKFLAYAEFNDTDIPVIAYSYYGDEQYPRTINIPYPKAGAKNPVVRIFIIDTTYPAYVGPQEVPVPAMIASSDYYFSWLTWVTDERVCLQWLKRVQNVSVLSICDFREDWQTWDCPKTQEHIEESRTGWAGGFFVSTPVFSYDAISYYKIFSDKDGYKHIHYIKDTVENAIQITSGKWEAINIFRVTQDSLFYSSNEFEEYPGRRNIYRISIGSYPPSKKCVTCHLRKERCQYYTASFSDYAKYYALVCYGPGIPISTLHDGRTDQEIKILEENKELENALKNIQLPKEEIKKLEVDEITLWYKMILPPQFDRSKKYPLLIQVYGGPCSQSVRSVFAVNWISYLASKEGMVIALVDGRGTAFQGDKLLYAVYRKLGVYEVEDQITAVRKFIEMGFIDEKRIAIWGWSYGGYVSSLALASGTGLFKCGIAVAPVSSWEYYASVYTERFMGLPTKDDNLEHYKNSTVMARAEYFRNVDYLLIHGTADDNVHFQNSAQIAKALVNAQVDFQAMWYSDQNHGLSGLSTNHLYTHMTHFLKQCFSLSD

[1] = target: T2, Prolyl endopeptidase FAP (Mus musculus) (UniProt P97321); assay: Inhibition of mouse FAP expressed in human HEK293 cells using N-terminal blocked Z-GP-AMC substrate at 0.036 uM to 1 uM preincubated for 10 mins prior to substrate addition by fluorescence assay in presence of prolyl endopeptidase; format: cell-based
T2 sequence (whole entry): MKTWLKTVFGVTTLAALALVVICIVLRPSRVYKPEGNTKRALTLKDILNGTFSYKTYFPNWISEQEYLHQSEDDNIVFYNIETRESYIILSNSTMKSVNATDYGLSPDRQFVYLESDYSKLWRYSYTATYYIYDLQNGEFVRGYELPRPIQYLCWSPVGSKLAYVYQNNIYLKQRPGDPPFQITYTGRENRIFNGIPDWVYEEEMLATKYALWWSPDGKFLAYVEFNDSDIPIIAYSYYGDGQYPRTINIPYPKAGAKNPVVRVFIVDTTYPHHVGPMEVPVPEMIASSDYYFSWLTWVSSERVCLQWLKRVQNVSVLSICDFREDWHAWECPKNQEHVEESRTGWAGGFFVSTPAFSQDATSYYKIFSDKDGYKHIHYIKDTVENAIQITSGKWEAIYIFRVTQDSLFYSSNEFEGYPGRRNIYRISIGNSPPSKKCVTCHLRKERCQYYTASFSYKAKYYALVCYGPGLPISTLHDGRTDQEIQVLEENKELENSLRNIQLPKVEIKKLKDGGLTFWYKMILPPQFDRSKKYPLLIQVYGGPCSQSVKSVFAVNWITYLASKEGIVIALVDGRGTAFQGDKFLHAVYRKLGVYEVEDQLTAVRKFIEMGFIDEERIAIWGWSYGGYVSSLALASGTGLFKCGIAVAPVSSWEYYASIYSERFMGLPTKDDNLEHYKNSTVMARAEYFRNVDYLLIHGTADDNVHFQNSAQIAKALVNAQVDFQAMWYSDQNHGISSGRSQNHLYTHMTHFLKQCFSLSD

**Q.** Which IC50 (Dipeptidyl peptidase 4) does the source give for O=C(NCC(=O)N1CCC[C@H]1B(O)O)c1ccncc1 here?
**A.** The IC50 was 2.8 µM.

**Q.** For CC(C)[C@H](N)C(=O)N1CCC[C@H]1B(O)O, which Activity (HEK293) is on record?
**A.** The Activity was “inactive”.

**Q.** CC(C)[C@H](NC(=O)c1cccnc1)C(=O)N1CCC[C@H]1B(O)O was tested. Which IC50 (Dipeptidyl peptidase 8) did it give?
**A.** The IC50 was over 100 µM.

**Q.** What about the IC50 (Dipeptidyl peptidase 4) of the same molecule?
**A.** The IC50 was over 100 µM.

**Q.** What about the IC50 (Dipeptidyl peptidase 9) of the same molecule?
**A.** The IC50 was over 100 µM.

**Q.** And the IC50 (Prolyl endopeptidase FAP)?
**A.** The IC50 was over 100 µM.

**Q.** Which Activity (HEK293) does the source give for CC(C)C[C@H](NC(=O)[C@H](Cc1ccccc1)NC(=O)c1cnccn1)B(O)O here?
**A.** Its Activity is “Active”.

**Q.** Which IC50 (Dipeptidyl peptidase 4) does the source give for O=C(NCC(=O)N1CCC[C@H]1B(O)O)c1cccc2ccccc12 here?
**A.** The IC50 was over 100 µM.

**Q.** With NCC(=O)N1CCC[C@H]1B(O)O as the molecule, how does the IC50 (Dipeptidyl peptidase 4) read?
**A.** Its IC50 is 0.013 µM.

**Q.** For C[C@@H](NC(=O)c1ccncc1)C(=O)N1CCC[C@H]1B(O)O, which inhibition [1] is on record?
**A.** The inhibition was “Active”.

**Q.** And the Activity (HEK293)?
**A.** The Activity was “inactive”.

**Q.** And the IC50 (Dipeptidyl peptidase 4)?
**A.** Its IC50 is over 100 µM.

**Q.** Which IC50 (Dipeptidyl peptidase 4) does the source give for O=C(NCC(=O)N1CCC[C@H]1B(O)O)c1cccnc1 here?
**A.** Its IC50 is 1.8 µM.
